US20140128357A1, “METHODS OF PRODUCING AND USING BRASSINOSTEROIDS TO PROMOTE GROWTH, REPAIR AND MAINTENANCE OF SKELETAL MUSCLE AND SKIN” (Rutgers University, priority 2010, published 2014)
Like-named read-outs stand apart in the source and are kept apart here.

How the values were obtained:
[1] = tested on: L6 rat myotubes; assay: Protein synthesis, [3H]-phenylalanine incorporation in myotubes; type: cell-based; conditions: for increase in protein synthesis above control levels: 4 h (FIG. 2A); for Protein synthesis (% increase over control): 4 h; for maximum increases in protein synthesis: dose response 0.3-30 μM (FIG. 8A)
Summary of the method: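 Differentiated L6 rat myotubes (2% serum, 7–9 days) treated in triplicate in serum-free DMEM with compound (10 μM) or 0.1% ethanol vehicle plus 0.5 μCi/mL [3H]-phenylalanine for 4 h. TCA-precipitated protein counted by scintillation, normalised to total protein; IGF-1 6.5 nM positive control.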

[2] = tested on: NIH 3T3 murine fibroblast cell line; assay: Cytotoxicity, MTT assay in 3T3 fibroblasts; type: cell-based, mouse
Protocol: FIG. 9. Cell survival curves as measured by MTT assay for brassinosteroids 1-9 against the murine fibroblast cell line NIH-3T3. Cells were incubated with various concentrations of brassinosteroids (0.3-30 μM) for 24 h at 37° C. The mean absorbance of the control cells represented 100% cell proliferation, and the mean absorbance of treated cells was related to control values to determine sensitivity. Error bars represent standard error (n=6) from mean cell proliferation as determined by repeated experiments.
In various aspects, cell viability is measured and the effects of doses of compound and test reagents are tested in cell lines. In some aspects, cell viability was measured by the MTT (3-(4,5-Dimethylthiazol-2-yl)-2,5-diphenyltetrazolium bromide) assay in triplicate (Mosmann et al., J. Immunol. Methods 65:55-63, 1983) and quantified spectrophotometrically at 550 nm using a microplate reader (Molecular Devices, Sunnyvale, Calif.).
3T3 fibroblasts were seeded in a 96-well flat bottom plate at a density of 1×10^4 cells/well. Cell viability was measured by an MTT (3-(4,5-Dimethylthiazol-2-yl)-2,5-diphenyltetrazolium bromide) assay in triplicate (0.3-30 μM of test substance for […]) essentially as described by Mosmann (J. Immunol. Methods 65, 55-63, 1983) and quantified spectrophotometrically at 550 nm using a microplate reader (Molecular Devices, Sunnyvale, Calif.). […] For cell proliferation studies, cells were treated in triplicate with 0.1-10 μM of test substance for 24 h and assayed using a BrdU (5-bromo-2′-deoxyuridine) kit from Amersham (Uppsala, Sweden).

[3] = tested on: AKT (Ser473) phosphorylation in L6 myotubes; assay: AKT (Ser473) phosphorylation, Western blot; type: cell-based, rat; conditions: for activation of AKT: after 1 h
Protocol: In some aspects, Western blot analyses were carried out. Fully differentiated L6 myotubes were cultured as described above, and whole cell extracts were prepared in ice-cold RIPA buffer supplemented with 10 mM sodium fluoride, 2 mM sodium orthovanadate, 1 mM PMSF, and protease inhibitor cocktail (Sigma) and centrifuged at 12,000 g for 20 min at 4° C. Equal amounts of protein (50 μg) from the supernatants were separated on 10% SDS polyacrylamide gels and blotted onto the nitrocellulose membrane. Western blot detection was carried out with monoclonal phospho-AKT (Ser473) antibodies according to the manufacturer's instructions (Cell Signaling Technology, Danvers, Mass.). After being washed, the blots were incubated with an anti-rabbit peroxidase-labeled secondary antibody and visualized using ECL Western Blotting Detection Reagent (GE Healthcare, Piscataway, N.J.). After being stripped, the same blots were probed with total AKT antibodies to serve as loading controls.

[4] = tested on: L6 rat myotubes; assay: Protein degradation, release of acid-soluble [3H]-phenylalanine; type: cell-based; conditions: for decrease in protein degradation vs control levels: 1 μM, 4 h

| SMILES | increase in protein synthesis above control levels ([1]; 1 μM) | time at which stimulated protein synthesis peaked ([1]; 3 μM, 1-24 h study) | Protein synthesis (% increase over control) ([1]; 10 μM) | increase in protein synthesis above control levels ([1]; 10 μM) | Protein synthesis (% increase over control) ([1]; 10 μM, listed as HB) | increase in protein synthesis above control levels ([1]; 20 μM) | maximum increases in protein synthesis [1] | EC50 ([1]; read-out: 50% effective dose for protein synthesis) | IC50 ([2]; 3T3 mouse fibroblasts, MTT, 0.3-30 μM, read-out: Cell cytotoxicity, IC50) | cytotoxicity in vitro ([2]; tested up to 30 μM) | time to AKT phosphorylation [3] | stimulation of Ser473 phosphorylation of AKT ([3]; 3 μM, 1 h) | activation of AKT [3] | decrease in protein degradation vs control levels [4] | time at which suppression of protein degradation reached a plateau ([4]; 3 μM HB, 1-4 h study) | Protein synthesis (% increase over control) ([1]; 10 μM, listed as (22S,23S)-homocastasterone) | concentration at which inhibition of protein degradation reached a plateau ([4]; 4 h dose response) | effect of structural modification on activation of protein synthesis, in words ([1]; 10 μM) | IC50 [2] | IC50 ([2]; 3T3/NIH murine fibroblasts, MTT, 24 h (FIG. 9), read-out: half-maximal inhibitory concentration (IC50), cell proliferation) |
| --- | --- | --- | --- | --- | --- | --- | --- | --- | --- | --- | --- | --- | --- | --- | --- | --- | --- | --- | --- | --- |
| CC[C@@H](C(C)C)[C@H](O)[C@@H](O)[C@@H](C)[C@H]1CC[C@H]2[C@@H]3COC(=O)[C@H]4C[C@H](O)[C@H](O)C[C@]4(C)[C@H]3CC[C@]12C [Compound 1, (22S,23S,24S)-2α,3α,22,23-tetrahydroxy-24 ethyl-β-homo-7-oxo-5α-cholestane-6-one] | 12.4±2.3% | 3 h | 37.2 ± 5.9 % | 34.9±3.1% | 37.2±5.9% | 36.9±2.9% | 36.9±2.9% | 3 µM | > 30 µM | no cytotoxicity | 30 min | up to 3 fold | significant activation of AKT | 8.2±0.6% | 3 h | – | – | – | – | – |
| CC[C@@H](C(C)C)[C@H](O)[C@@H](O)[C@@H](C)[C@H]1CC[C@H]2[C@@H]3CC(=O)[C@H]4C[C@H](O)[C@H](O)C[C@]4(C)[C@H]3CC[C@]12C [Compound 2, (22S,23S,24S)-2α,3α, 22,23-tetrahydroxy-24-ethyl-5α-cholestan-6-one] | – | – | 41.0 ± 2.7 % | – | – | – | 40.7±4.9% | – | – | – | – | – | significant activation of AKT | 8.7±1.7% | – | 41.0±2.7% | 10 µM | – | – | – |
| CC[C@@H](C(C)C)[C@H](O)[C@@H](O)[C@@H](C)[C@H]1CC[C@H]2[C@@H]3CC(=O)N[C@H]4C[C@H](O)[C@H](O)C[C@]4(C)[C@H]3CC[C@]12C [Compound 5, (22S,23S,24S)-2α,3α-22,23-tetrahydroxy-24-ethyl-B-homo-6-aza-5α-cholestan-7-one] | – | – | 3.3 ± 12.4% | – | – | – | – | – | – | – | – | – | – | – | – | – | – | complete loss of activation of protein synthesis | 12.5 µM | 12.5 µM |
